Measured values: PubChem BioAssay AID1745844 (Carcinogenic Potency Database (CPDB), 2022)
Activity calls are given as the source filed them. The rule behind the calls is not given here.

Test system: rodent lifetime carcinogenesis bioassay, tumor incidence TD50
Assay: chronic cancer bioassays in animals – CPDB, compiled studies (AID 1745844)
[1] = mouse, strain B6C3F1, females, in feed, site: any site (literature study), lesion: several types, types named in the paper, dosed 106 weeks, study length 106 weeks
[2] = mouse, strain B6C3F1, females, in feed, site: liver, lesion: hepatocellular adenoma + hepatocellular carcinoma + neoplastic nodule, dosed 106 weeks, study length 106 weeks
[3] = mouse, strain B6C3F1, males, in feed, site: any site (literature study), lesion: several types, types named in the paper, dosed 106 weeks, study length 106 weeks
[4] = mouse, strain B6C3F1, males, in feed, site: lung, lesion: alveolar/bronchiolar adenoma + alveolar/bronchiolar carcinoma, dosed 106 weeks, study length 106 weeks

SMILES: c1ccc(NNc2ccccc2)cc1
- TD50 (mouse, strain B6C3F1, females, in feed, site: any site (literature study), lesion: several types, types named in the paper, dosed 78 weeks, study length 95 weeks): 31.5 mg/kg/day
- TD50 (mouse, strain B6C3F1, females, in feed, site: liver, lesion: hepatocellular adenoma + hepatocellular carcinoma + neoplastic nodule, dosed 78 weeks, study length 95 weeks): 26 mg/kg/day
- TD50 (mouse, strain B6C3F1, females, in feed, site: liver, lesion: hepatocellular adenoma + hepatocellular carcinoma, dosed 78 weeks, study length 95 weeks): 26 mg/kg/day
- TD50 (mouse, strain B6C3F1, females, in feed, site: liver, lesion: hepatocellular carcinoma, dosed 78 weeks, study length 95 weeks): 29.7 mg/kg/day
- TD50 (mouse, strain B6C3F1, females, in feed, site: lung, lesion: alveolar/bronchiolar adenoma + alveolar/bronchiolar carcinoma, dosed 78 weeks, study length 95 weeks): 8760 mg/kg/day
- carcinogen call (mouse, strain B6C3F1, males, in feed, site: any site (literature study), lesion: several types, types named in the paper, dosed 78 weeks, study length 95 weeks): negative (inactive)
- TD50 (mouse, strain B6C3F1, males, in feed, site: liver, lesion: hepatocellular adenoma + hepatocellular carcinoma + neoplastic nodule, dosed 78 weeks, study length 95 weeks): 1090 mg/kg/day
- TD50 (rat, strain Fischer 344, females, in feed, site: any site (literature study), lesion: several types, types named in the paper, dosed 78 weeks, study length 106 weeks): 4.5 mg/kg/day
- TD50 (rat, strain Fischer 344, females, in feed, site: liver + mammary gland, lesion: neoplastic nodule + adenocarcinoma, NOS, dosed 78 weeks, study length 106 weeks): 6.74 mg/kg/day
- TD50 (rat, strain Fischer 344, females, in feed, site: liver, lesion: hepatocellular adenoma + hepatocellular carcinoma + neoplastic nodule, dosed 78 weeks, study length 106 weeks): 18.1 mg/kg/day
- TD50 (rat, strain Fischer 344, females, in feed, site: liver, lesion: neoplastic nodule, dosed 78 weeks, study length 106 weeks): 18.1 mg/kg/day
- TD50 (rat, strain Fischer 344, females, in feed, site: mammary gland, lesion: adenocarcinoma, NOS, dosed 78 weeks, study length 106 weeks): 11.4 mg/kg/day
- TD50 (rat, strain Fischer 344, males, in feed, site: Zymbal's gland, lesion: squamous-cell carcinoma, dosed 78 weeks, study length 106 weeks): 38.5 mg/kg/day
- TD50 (rat, strain Fischer 344, males, in feed, site: adrenal gland, lesion: pheochromocytoma, dosed 78 weeks, study length 106 weeks): 16.2 mg/kg/day
- TD50 (rat, strain Fischer 344, males, in feed, site: any site (literature study), lesion: several types, types named in the paper, dosed 78 weeks, study length 106 weeks): 6.85 mg/kg/day
- TD50 (rat, strain Fischer 344, males, in feed, site: ear canal + Zymbal's gland, lesion: squamous-cell carcinoma + squamous-cell papilloma, dosed 78 weeks, study length 106 weeks): 35.8 mg/kg/day
- TD50 (rat, strain Fischer 344, males, in feed, site: liver + Zymbal's gland, lesion: hepatocellular carcinoma + neoplastic nodule + squamous-cell carcinoma, dosed 78 weeks, study length 106 weeks): 3.55 mg/kg/day
- TD50 (rat, strain Fischer 344, males, in feed, site: liver, lesion: hepatocellular adenoma + hepatocellular carcinoma + neoplastic nodule, dosed 78 weeks, study length 106 weeks): 3.7 mg/kg/day
- TD50 (rat, strain Fischer 344, males, in feed, site: liver, lesion: hepatocellular carcinoma + neoplastic nodule, dosed 78 weeks, study length 106 weeks): 3.7 mg/kg/day
- TD50 (rat, strain Fischer 344, males, in feed, site: liver, lesion: hepatocellular carcinoma, dosed 78 weeks, study length 106 weeks): 4.67 mg/kg/day

SMILES: O=[As]O
- carcinogen call (mouse, strain Charles River CD1, both sexes, in drinking water, site: any site (literature study), lesion: benign tumor, dosed 104 weeks, study length 104 weeks): negative (inactive)
- carcinogen call (mouse, strain Charles River CD1, both sexes, in drinking water, site: any site (literature study), lesion: malignant tumor, dosed 104 weeks, study length 104 weeks): negative (inactive)
- carcinogen call (mouse, strain Charles River CD1, both sexes, in drinking water, site: any site (literature study), lesion: several types, types named in the paper, dosed 104 weeks, study length 104 weeks): negative (inactive)
- carcinogen call (mouse, strain Charles River CD1, both sexes, in drinking water, site: liver, lesion: several types, types named in the paper, dosed 104 weeks, study length 104 weeks): negative (inactive)
- carcinogen call (mouse, strain Charles River CD1, both sexes, in drinking water, site: lung, lesion: several types, types named in the paper, dosed 104 weeks, study length 104 weeks): negative (inactive)
- carcinogen call (rat, strain Long-Evans BLU:(LE), both sexes, in drinking water, site: any site (literature study), lesion: malignant tumor, dosed 167 weeks, study length 167 weeks): negative (inactive)
- carcinogen call (rat, strain Long-Evans BLU:(LE), both sexes, in drinking water, site: any site (literature study), lesion: one or several types, types not named, dosed 167 weeks, study length 167 weeks): negative (inactive)
- TD50 (rat, strain Long-Evans BLU:(LE), both sexes, in drinking water, site: liver, lesion: one or several types, types not named, dosed 167 weeks, study length 167 weeks): 10.6 mg/kg/day (inactive)
- TD50 (rat, strain Osborne-Mendel, both sexes, in feed, site: any site (literature study), lesion: malignant tumor, dosed 104 weeks, study length 104 weeks): 626 mg/kg/day (inactive)
- carcinogen call (rat, strain Osborne-Mendel, both sexes, in feed, site: any site (literature study), lesion: several types, types named in the paper, dosed 104 weeks, study length 104 weeks): negative (inactive)

SMILES: CCN(CC)C(=S)S[Te](SC(=S)N(CC)CC)(SC(=S)N(CC)CC)SC(=S)N(CC)CC
- TD50 (mouse, strain B6AKF1, females, oral dosing, site: any site (literature study), lesion: several types, types named in the paper, dosed 76 weeks, study length 76 weeks): 26.7 mg/kg/day
- TD50 (mouse, strain B6AKF1, females, oral dosing, site: lung, lesion: adenoma, dosed 76 weeks, study length 76 weeks): 28.2 mg/kg/day
- TD50 (mouse, strain B6AKF1, males, oral dosing, site: any site (literature study), lesion: several types, types named in the paper, dosed 76 weeks, study length 76 weeks): 31.2 mg/kg/day
- TD50 (mouse, strain B6AKF1, males, oral dosing, site: liver, lesion: hepatoma, dosed 76 weeks, study length 76 weeks): 55.5 mg/kg/day
- TD50 [1]: 1030 mg/kg/day (inactive)
- TD50 [2]: 2270 mg/kg/day
- TD50 (mouse, strain B6C3F1, females, in feed, site: lung, lesion: alveolar/bronchiolar adenoma + alveolar/bronchiolar carcinoma, dosed 106 weeks, study length 106 weeks): 3400 mg/kg/day
- TD50 (mouse, strain B6C3F1, females, oral dosing, site: any site (literature study), lesion: several types, types named in the paper, dosed 76 weeks, study length 76 weeks): 63.5 mg/kg/day
- TD50 (mouse, strain B6C3F1, females, oral dosing, site: lung, lesion: adenoma, dosed 76 weeks, study length 76 weeks): 131 mg/kg/day
- TD50 [3]: 902 mg/kg/day
- TD50 (mouse, strain B6C3F1, males, in feed, site: eye, lesion: adenoma, NOS, dosed 106 weeks, study length 106 weeks): 201 mg/kg/day
- TD50 [4]: 228 mg/kg/day
- TD50 (mouse, strain B6C3F1, males, in feed, site: lung, lesion: alveolar/bronchiolar carcinoma, dosed 106 weeks, study length 106 weeks): 260 mg/kg/day
- TD50 (mouse, strain B6C3F1, males, oral dosing, site: any site (literature study), lesion: several types, types named in the paper, dosed 76 weeks, study length 76 weeks): 8.41 mg/kg/day
- TD50 (mouse, strain B6C3F1, males, oral dosing, site: liver, lesion: hepatoma, dosed 76 weeks, study length 76 weeks): 24.2 mg/kg/day
- TD50 (mouse, strain B6C3F1, males, oral dosing, site: lung, lesion: adenoma, dosed 76 weeks, study length 76 weeks): 108 mg/kg/day
- TD50 (mouse, strain B6C3F1, males, oral dosing, site: lung, lesion: carcinoma, dosed 76 weeks, study length 76 weeks): 108 mg/kg/day
- TD50 (mouse, strain B6C3F1, males, oral dosing, site: lung, lesion: several types, types named in the paper, dosed 76 weeks, study length 76 weeks): 52.1 mg/kg/day
- TD50 (rat, strain Fischer 344, females, in feed, site: liver, lesion: hepatocellular adenoma + hepatocellular carcinoma + neoplastic nodule, dosed 105 weeks, study length 105 weeks): 650 mg/kg/day
- TD50 (rat, strain Fischer 344, females, in feed, site: pituitary gland, lesion: adenoma, NOS, dosed 105 weeks, study length 105 weeks): 12.3 mg/kg/day (inactive)
- TD50 (rat, strain Fischer 344, males, in feed, site: all sites, lesion: mesothelioma, NOS, dosed 105 weeks, study length 105 weeks): 77.6 mg/kg/day
- TD50 (rat, strain Fischer 344, males, in feed, site: body cavities, lesion: mesothelioma, NOS, dosed 105 weeks, study length 105 weeks): 181 mg/kg/day

SMILES: C=CCc1ccc(O)c(OC)c1
- TD50 (mouse, strain B6C3F1, females, in feed, site: liver, lesion: hepatocellular adenoma + hepatocellular carcinoma + neoplastic nodule, dosed 103 weeks, study length 104 weeks): 2910 mg/kg/day
- TD50 (mouse, strain B6C3F1, females, in feed, site: liver, lesion: hepatocellular adenoma + hepatocellular carcinoma, dosed 103 weeks, study length 104 weeks): 2910 mg/kg/day
- TD50 (mouse, strain B6C3F1, females, in feed, site: lung, lesion: alveolar/bronchiolar adenoma + alveolar/bronchiolar carcinoma, dosed 103 weeks, study length 104 weeks): 25300 mg/kg/day
- TD50 (mouse, strain B6C3F1, males, in feed, site: any site (literature study), lesion: several types, types named in the paper, dosed 103 weeks, study length 104 weeks): 1550 mg/kg/day
- TD50 (mouse, strain B6C3F1, males, in feed, site: liver, lesion: hepatocellular adenoma + hepatocellular carcinoma + neoplastic nodule, dosed 103 weeks, study length 104 weeks): 451 mg/kg/day
- TD50 (mouse, strain B6C3F1, males, in feed, site: liver, lesion: hepatocellular adenoma + hepatocellular carcinoma, dosed 103 weeks, study length 104 weeks): 451 mg/kg/day
- TD50 (mouse, strain B6C3F1, males, in feed, site: liver, lesion: hepatocellular adenoma, dosed 103 weeks, study length 104 weeks): 781 mg/kg/day
- TD50 (mouse, strain B6C3F1, males, in feed, site: liver, lesion: hepatocellular carcinoma, dosed 103 weeks, study length 104 weeks): 710 mg/kg/day
- TD50 (mouse, strain B6C3F1, males, in feed, site: thyroid gland, lesion: follicular-cell adenoma, dosed 103 weeks, study length 104 weeks): 8520 mg/kg/day
- carcinogen call (mouse, strain Charles River CD1, females, in feed, site: liver, lesion: one or several types, types not named, dosed 50 weeks, study length 78 weeks): negative (inactive)
- carcinogen call (mouse, strain Charles River CD1, females, in feed, site: lung, lesion: adenoma, dosed 50 weeks, study length 78 weeks): negative (inactive)
- carcinogen call (rat, strain Fischer 344, females, in feed, site: any site (literature study), lesion: several types, types named in the paper, dosed 103 weeks, study length 104 weeks): negative (inactive)
- TD50 (rat, strain Fischer 344, males, in feed, site: any site (literature study), lesion: several types, types named in the paper, dosed 103 weeks, study length 104 weeks): 293 mg/kg/day
- TD50 (rat, strain Fischer 344, males, in feed, site: lung, lesion: alveolar/bronchiolar adenoma + alveolar/bronchiolar carcinoma, dosed 103 weeks, study length 104 weeks): 424 mg/kg/day (inactive)

SMILES: O=C1c2ccccc2-c2ccc3c4c(ccc1c24)-c1ccccc1C3=O
- carcinogen call [1]: negative (inactive)
- TD50 [2]: 23900 mg/kg/day
- TD50 (mouse, strain B6C3F1, males, in feed, site: all sites, lesion: lymphoma, dosed 106 weeks, study length 106 weeks): 10900 mg/kg/day
- TD50 [3]: 4410 mg/kg/day
- TD50 (mouse, strain B6C3F1, males, in feed, site: liver, lesion: hepatocellular adenoma + hepatocellular carcinoma + neoplastic nodule, dosed 106 weeks, study length 106 weeks): 8610 mg/kg/day
- TD50 [4]: 19100 mg/kg/day
- carcinogen call (rat, strain Fischer 344, females, in feed, site: any site (literature study), lesion: several types, types named in the paper, dosed 104 weeks, study length 104 weeks): negative (inactive)
- TD50 (rat, strain Fischer 344, males, in feed, site: any site (literature study), lesion: several types, types named in the paper, dosed 104 weeks, study length 104 weeks): 787 mg/kg/day (inactive)
- TD50 (rat, strain Fischer 344, males, in feed, site: liver, lesion: hepatocellular adenoma + hepatocellular carcinoma + neoplastic nodule, dosed 104 weeks, study length 104 weeks): 2790 mg/kg/day
